These are literature values, as cited in publication PMC7941644, “Identification and Development of Therapeutics for COVID-19” (ArXiv, 2021).

Where a name gives a salt, the structure may show the parent alone. Read-outs that look alike come from different tables or passages of the source.

Data set [1] relates to COVID-19. Set-up: method as in PMID 33492523. As to conditions: mild to moderate symptoms, in addition to SOC; p = 0.06.
In data set [2] the test system is Vero E6 cells. As to conditions: read-out: 90% effective concentration (EC90).
Data set [3] has as its system SARS-CoV-2. As to conditions: SARS-CoV-2 infection of Vero cells.
The test system of data set [4] is SARS-CoV-1. As to conditions: Vero E6 cells.
The subject of data set [5] is COVID-19. As to conditions: vs SOC.
The subject of data set [6] is COVID-19.
Data set [7] deals with COVID-19. This is another data set of the same source.
Data set [8] relates to SARS-CoV-2. As to conditions: second interim analysis, 600 mg daily; control 3.
Data set [9] has as its system COVID-19. As to conditions: ivermectin preliminary; HCQ and lopinavir-ritonavir ref 144.
The subject of data set [10] is COVID-19. As to conditions: days 3–6; study design severely limited.
Data set [11] relates to COVID-19. As to conditions: treatment vs control groups.
Data set [12] has as its system SARS-CoV-2.
Data set [13] has as its system COVID-19. As to conditions: HCQ arm vs control.
In data set [14] the test system is SARS-CoV-2. As to conditions: control 16.8%, p < 0.001.
Data set [15] relates to COVID-19. As to conditions: vs SOC alone.
In data set [16] the test system is SARS-CoV-2. Also noted: method as in PMID 32142651. As to conditions: lung cells in vitro.
The subject of data set [17] is SARS-CoV-2. The source holds these as a separate data set.
For data set [18], the system named is COVID-19. The source holds these as a separate data set.
The subject of data set [19] is COVID-19. The source holds these as a separate data set.
Data set [20] deals with COVID-19. Also noted: method as in ref 145 = [145]; 145. August 6, 2021: Early Treatment of COVID-19 with Repurposed Therapies: The TOGETHER Adaptive Platform Trial (Edward Mills, PhD, FRCP) Rethinking Clinical Trials ( 2021 - 08 - 11 ) https://rethink. As to conditions: placebo group 107; preliminary analysis as of August 6, 2021.
The test system of data set [21] is SARS-CoV-2. Set-up: method as in PMID 32251768. As to conditions: Vero-hSLAM; at concentrations much higher than existing dosage guidelines.
The subject of data set [22] is COVID-19. Also noted: method as in PMID 33065103.
Data set [23] has as its system COVID-19. Also noted: method as in PMID 33175880.
The test system of data set [24] is COVID-19. Also noted: method as in PMID 33662102. As to conditions: 400 patients.
The test system of data set [25] is COVID-19. This is another data set of the same source.
Data set [26] has as its system COVID-19. This is another data set of the same source.
Data set [27] deals with COVID-19. The source holds these as a separate data set.
The test system of data set [28] is COVID-19. As to conditions: significant when intubated patients excluded.
Data set [29] deals with COVID-19. As to conditions: p < 0.001.
The test system of data set [30] is COVID-19. As to conditions: 95% CI 0.376–0.547, p < 0.001.
For data set [31], the system named is COVID-19. The source holds these as a separate data set.
Data set [32] has as its system COVID-19. The source holds these as a separate data set.
The subject of data set [33] is COVID-19. The source holds these as a separate data set.
Data set [34] has as its system COVID-19. Set-up: method as in ref 210; combination ref 208. As to conditions: phase 2 portion; bamlanivimab alone ref 210; combination ref 208.
Data set [35] concerns SARS-CoV-1. As to conditions: mouse, in vivo.
For data set [36], the system named is COVID-19. As to conditions: compared to placebo.

With `CCN(CC)CCCC(C)Nc1ccnc2cc(Cl)ccc12` (stereo not drawn) [CQ, chloroquine], the hospital stay in [1] is given as 15.89 days. Besides, in [2], the EC90 is 6.9 µM. Moreover, the “inhibition of viral replication” value in [3] is reported as “effective in inhibiting viral replication”. For the same molecule, the “inhibition of viral entry” value in data set [4] is reported as “inhibited viral entry of SARS-CoV-1”.
For the molecule `CCN(CCO)CCCC(C)Nc1ccnc2cc(Cl)ccc12` (stereo not drawn) [HCQ, hydroxychloroquine], the “risk with short-term use” value is recorded as “not associated with additional risk”. Moreover, the “inhibition of viral replication” value in data set [3] was “effective in inhibiting viral replication”. Moreover, the “time to fever break and time to cough relief” value in data set [5] is “decreased both average time to fever break and average time to cough relief”. Also, in data set [6] (compared to no-HCQ group), the “adjusted HR, risk of death” value is reported as 2.61. For the same molecule, the rate of death in data set [6] (men, median age 65, no-HCQ group 14.1%) is 27.8%. Moreover, the “difference in viral load between HCQ and control groups” value in data set [7] (day 3, 95% CI −0.28 to 0.29) is reported as 0.01. Besides, the “difference in viral load between HCQ and control groups” value in [7] (day 7, 95% CI −0.44 to 0.29) was −0.07. In addition, the “difference in time to complete resolution of symptoms” value in data set [7] (p = 0.38) was -2 days. Also, the “individuals who had contracted COVID-19” value in data set [8] was 4. The “effect on COVID-19 outcomes” value in data set [9] is reported as “no effect”. Also, the “virological clearance by nasopharyngeal swab” value in [10] is “higher rates of virological clearance”. In data set [11], the “virological clearance rate, time to virological clearance, time to body temperature normalization” value is “comparable outcomes”. Also, in data set [12] (HCQ + SOC, SOC 21 days, p = 0.97), the “median time to symptom alleviation” value is given as 19 days. Besides, in data set [12] (SOC plus HCQ vs SOC, 95% CI −10.3% to 18.5%), the “estimated difference in negative conversion rate of SARS-CoV-2 in 28 days” value is given as 4.1%. In addition, in data set [12] (SOC+HCQ, 0% in SOC group, p = 0.004), the diarrhea is 10%. In data set [12] (SOC+HCQ, SOC only 8.8%), the “patients reporting adverse outcomes” value is 30%. Besides, the “increase in cardiac events” value in [13] is reported as 0.4 percentage points. Also, in data set [14], the “patients reporting side effects” value is reported as 40.1%.
Take `COC(=O)OCOc1c2n(ccc1=O)N([C@@H]1c3ccccc3SCc3c1ccc(F)c3F)[C@@H]1COCCN1C2=O` [baloxavir marboxil]: the “effect on viral clearance at day 14 and secondary outcomes” value in data set [15] is listed as “no significant effect”.
Take `CN(C)C(=O)COC(=O)Cc1ccc(OC(=O)c2ccc(NC(=N)N)cc2)cc1` [camostat mesylate]: the “block of viral entry” value in [16] was “block the entry of SARS-CoV-2 into lung cells”.
With `O=c1c2ccccc2[se]n1-c1ccccc1` [ebselen], the “antiviral effect in SARS-CoV-2-infected Vero cells” value in [17] is on record as “strongest potency in reducing the viral load”.
Turning to `NC(=O)c1nc(F)cnc1O` [favipiravir, 6-fluoro-3-hydroxy-2-pyrazinecarboxamide], the hospital stay in data set [1] is listed as 13.29 days. Further, in data set [18] (35 favipiravir, 45 control patients), the “time to viral clearance by RT-PCR” value is “four”. The “patients with adverse side effects” value in data set [18] (control 56%) was 11%. For the same molecule, the “improvement rate of lung CT scans” value in data set [18] (day 14, control 62%, p = 0.004) is reported as 91%. For the same molecule, the “effect on viral clearance at day 14 and secondary outcomes” value in data set [15] is reported as “no significant effect”. In data set [19], the “effect on viral clearance at four days (secondary endpoint)” value is “significant effect” and the tolerability result is listed as “generally well-tolerated”.
For `COCCCC/C(=N\OCCN)c1ccc(C(F)(F)F)cc1` [fluvoxamine], in data set [20], the “patients progressed to hospitalization for COVID-19” value was 74.
For `CC[C@H](C)[C@H]1O[C@]2(CC[C@@H]1C)C[C@@H]1C[C@@H](C/C=C(\C)[C@@H](O[C@H]3C[C@H](OC)[C@@H](O[C@H]4C[C@H](OC)[C@@H](O)[C@H](C)O4)[C@H](C)O3)[C@@H](C)/C=C/C=C3\CO[C@@H]4[C@H](O)C(C)=C[C@@H](C(=O)O1)[C@]34O)O2` [ivermectin], the “inhibition of viral replication” value in [21] is given as “inhibit viral replication”. Further, the all-cause mortality result in [22] is “reduced all-cause mortality”. In addition, in data set [23], the “clinical outcomes or viral clearance” value was “no difference in clinical outcomes or viral clearance”. For the same molecule, the duration of symptoms entry in data set [24] is “no effect on the duration of symptoms”. Also, in data set [9], the “effect on COVID-19 outcomes” value is reported as “no effect on COVID-19 outcomes”.
For the molecule `Cc1cccc(C)c1OCC(=O)N[C@@H](Cc1ccccc1)[C@@H](O)C[C@H](Cc1ccccc1)NC(=O)[C@H](C(C)C)N1CCCNC1=O` [lopinavir], the “effect on COVID-19-related mortality” value in data set [25] is “no effect”.
One may read the mortality as the percentage killed. As to “TCZ: humanized monoclonal antibody that binds the insoluble and soluble receptor of IL-6”, the patients dying in [26] (2 of 62 admitted after TCZ available, 11 of 23 (47.8%) before) is 3.2%. Also, the “multivariate HR, survival” value in data set [26] (CI 0.004–0.347, p = 0.004) is listed as 0.035. For the same molecule, the “progression to invasive medical ventilation” value in [27] (SOC 32%, p = 0.006) is on record as 0%. For the same molecule, the mortality in data set [27] (SOC 48%, p = 0.066) is 25%. Also, the “progression to death and/or ICU admission” value in data set [27] (SOC 72%, p = 0.002) is reported as 25%. The “mortality, TCZ vs SOC” value in [28] is reported as “did not differ”. For the same molecule, the “HR, survivorship” value in [29] (19 studies) was 0.41; in data set [29] (excluding studies that administered a steroid alongside TCZ), 0.04. Further, the “odds ratio of mortality” value in [30] is 0.453. Besides, the “change in symptoms following treatment” value in data set [31] is recorded as “rapid improvement in symptoms”. Further, the “rate ratio, hospital discharge within 28 days” value in [32] (95% CI 1.12–1.34, p < 0.0001) is on record as 1.22. The “rate ratio, 28-day mortality” value was 0.87 in [32] (RECOVERY combined with seven smaller randomized control trials, 95% CI 0.79–0.96, p = 0.005) and 0.86 in data set [32] (TCZ vs SOC, 95% CI 0.77–0.96, p = 0.007). The 28-day mortality in [32] (SOC alone 33%) was 29%. In addition, the “reduction in 28-day mortality” value in data set [32] (combined analysis of RECOVERY with smaller RCTs) is recorded as 13%. Further, the “probability of hospital discharge within 28 days” value in data set [32] (living patients, SOC 47%) is 54%. The “participants with adverse reactions determined to be associated with the intervention” value in [32] (out of 2,022 participants receiving TCZ) is “three”. In data set [33] (14-day period, CI 0.40–0.92, p = 0.020), the “adjusted HR, progression to invasive medical ventilation and/or death” value is reported as 0.61. Besides, the death rate in data set [33] (control 20%) is 7%. The secondary infections in data set [33] (control group 4%, p < 0.0001) is reported as 24%.
For “bamlanivimab: human mAb derived from convalescent plasma of a recovered COVID-19 patient”, in data set [34], the “effect on viral load” value was “able to accelerate the reduction in viral load”.
As for poly(I:C), the “effect when administered prior to infection” value in data set [35] is “protective effects”.
As for sotrovimab, in data set [36], the “rates of adverse events” value is “comparable, and in some cases lower”. The “more effective in reducing progression to the primary endpoint (hospitalized for more than 24 hours or died within 29 days)” value in data set [36] (583 patients) is reported as 85%.
